In patent publication US7919622B2, “Intermediates for fluorinated tetrabenazine carbinol compounds imaging agents and probes” (priority 2007, dated 2011):

Molecular target: T1, VMAT-2 (Homo sapiens, UniProt Q05940)
T1 construct: Novascreen Biosciences Corporation (contract assay provider) protocol Cat. No. 100-0751
Test: VMAT-2 binding affinity measurement (Novascreen protocol Cat. No. 100-0751)
Conditions: for Ki: VMAT-2 binding affinity, reserpine value is the average of two Ki values; for binding affinity for VMAT-2 (in words): relative to reserpine and DTBZ controls
Description: Novascreen, Inc. is a commercial provider of biological assays for the pharmaceutical industry. […] In addition, the binding constants Ki expressed in nano-molar (nM) concentration units indicate a very high affinity of the fluoroalkyl tetrabenazine carbinol compounds of the present invention for the VMAT-2 biomarker.

T1 sequence (Q05940 whole entry, species assumed): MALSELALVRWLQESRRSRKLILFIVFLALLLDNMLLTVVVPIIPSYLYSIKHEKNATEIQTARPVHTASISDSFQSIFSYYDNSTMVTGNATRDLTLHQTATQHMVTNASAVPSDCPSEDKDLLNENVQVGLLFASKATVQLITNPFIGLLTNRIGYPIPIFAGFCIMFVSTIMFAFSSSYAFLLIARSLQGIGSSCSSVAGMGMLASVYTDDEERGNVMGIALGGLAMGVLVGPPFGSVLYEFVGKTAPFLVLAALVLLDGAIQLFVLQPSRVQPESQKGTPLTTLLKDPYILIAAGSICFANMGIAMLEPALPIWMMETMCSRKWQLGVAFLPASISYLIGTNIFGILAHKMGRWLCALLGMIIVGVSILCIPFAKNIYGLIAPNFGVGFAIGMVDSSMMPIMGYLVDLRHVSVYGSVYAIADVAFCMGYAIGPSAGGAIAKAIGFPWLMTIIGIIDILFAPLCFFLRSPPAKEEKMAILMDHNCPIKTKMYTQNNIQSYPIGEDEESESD

COc1cc2c(cc1OC)[C@H]1C[C@@](C#CCF)(OC(C)=O)[C@H](CC(C)C)CN1CC2 [Compound 16, (2R,3R,11bR)-2-(3-fluoroprop-1-ynyl)-3-isobutyl-9,10-dimethoxy-2,3,4,6,7,11b-hexahydro-1-H-pyrido[2,1-α]isoquinolin-2-yl acetate]
Ki: 19 nM | binding affinity for VMAT-2 (in words): very high binding affinity

COc1cc2c(cc1OC)[C@H]1C[C@](O)(C#CCF)[C@H](CC(C)C)CN1CC2 [Compound 17]
Ki: 19 nM | binding affinity for VMAT-2 (in words): very high binding affinity
